From US10813944B2, “Cyclodextrins as procoagulants” (STICHTING SANQUIN BLOEDVOORZIENING, priority 2016, dated 2020)

What was measured:
VKA plasma = test: Thrombin generation in plasma of individuals taking vitamin K antagonists (VKA plasma); assay type: biochemical, human; conditions: two intensities of treatment (INR); 1 pM TF
Source text: FIG. 11: Plasma was used from individuals taking vitamin K-antagonists (VKA plasma). Two different intensities of treatment (given as INR) were available, as depicted in (A) and (B). The plasmas were subjected to thrombin generation analysis as described in the Materials and Methods section with 1 pM tissue factor (TF) as initiator of coagulation.
(§1) The Calibrated Automated Thrombogram® assays the generation of thrombin in clotting plasma using a microtiter plate reading fluorometer (Fluoroskan Ascent, ThermoLab systems, Helsinki, Finland) and Thrombinoscope® software (Thrombinoscope BV, Maastricht, The Netherlands). The assay was carried out as described by Hemker et al. (Pathofysiol. IIaemost. Thromb. 2003, 33, 4-15), and the Thrombinoscope® manual. Coagulation was triggered by recalcification in the presence of 1 or 5 pM recombinant human tissue factor (Innovin®, Siemens, Marburg, Germany), 4 μM phospholipids, and 417 μM fluorogenic substrate Z-Gly-Gly-Arg-AMC (Bachem, Bubendorf, Switzerland). Fluorescence was monitored using the Fluoroskan Ascent fluorometer (ThermoLabsystems, Helsinki, Finland), and the lag time, peak thrombin, velocity index and area under the curve (ETP) were calculated using the Thrombinoscope® software (Thrombinoscope BV).

[1] = tested on: mice anticoagulated with rivaroxaban; test: In vivo saphenous vein bleeding model in mice anticoagulated with rivaroxaban; conditions: mice fed rivaroxaban for 4 days; cyclodextrin by tail vein injection 5 min before bleeding assay; OKL-1111 dose expected to give 25 μM in plasma
Experimental: FIG. 29: In vivo analysis of procoagulant potential of OK-1111 and OKL-1147. Except for controls, animals were treated with rivaroxaban for 4 days and cyclodextrins were administered 5 min prior bleeding assay.
(§2) All animal protocols were approved by the Institutional Animal Care and Use Committee of the University of North Carolina. C57BL6/J mice were purchased from Charles Rivers Laboratories (Willmington, Mass.). Bleeding studies were done essentially as previously described Pastoft et al. (Haemophilia 2012; 18:782-8). Mice were anesthetized with isoflurane throughout all procedures. The hair on the ventral side of both hind limbs was removed. The animals were placed supine on a temperature and ECG monitoring board. The paws were gently restrained by looping soft polyethylene tubing around them and attaching the tubing to the ECG board. The skin on the left and right ventral hind limb was incised which exposes a length of the saphenous neurovascular bundle; the bundle was covered with normal saline to prevent drying. To assess haemostasis, the right saphenous vein was transected by piercing it with a 23-G needle followed by a longitudinal incision made in the distal portion of the vessel. Blood was gently wicked away until haemostasis occurred. The clot was then removed to restart bleeding and the blood was again wicked away until haemostasis occurs again. Clot disruption was repeated after every incidence of haemostasis for 30 minutes. Mice were fed chow that contained 0.1 mg rivaroxaban per g of chow. The mice were on this diet for 4 days to allow them to reach a steady state. Cyclodextrins were administered by a tail vein injection 5 minutes before the start of the bleeding assay. Two parameters were measured: 1) the number of times that haemostasis occurs in a 30 minute period, and 2) the time required for each haemostasis.

[2] = tested on: normal human plasma pretreated with inhibitory antibodies against factor IX; test: Thrombin generation in normal plasma spiked with inhibitory antibodies against factor IX; assay type: biochemical; conditions: antibody 5F5 20 μg/ml; 1 pM TF
Experimental: as §1
(§3) Normal plasma was spiked with inhibitory antibodies against factor VIII (Sanquin, VK34, 14 μg/ml), factor IX (Sanquin, 5F5, 20 μg/ml) or factor XI (Sanquin, mix of #203 and #175, 75 μg/ml). The effect of OKL-1111 was tested in thrombin generation assay using 1 pM tissue factor (TF). This model is representative for hemophilia A, B and C patients that have developed inhibitory antibodies against plasma-derived or recombinant factor VIII or IX or XI they are treated with.

[3] = tested on: plasma deficient in coagulation factor IX; test: Thrombin generation assay in plasma deficient in coagulation factor IX; assay type: biochemical, human
Experimental: as §1

[4] = tested on: plasma of a hemophilia A patient containing anti-FVIII antibodies; test: Thrombin generation in plasma of a hemophilia A patient with anti-factor VIII antibodies; assay type: biochemical, human; conditions: anti-FVIII antibodies 50 BU
Experimental: FIG. 28: Effect of OKL-1111 (A), OKL-1180 (B) and OKL-1187 (C) on coagulation in plasma of a hemophilia A patient with anti-factor VIII antibodies. BU=Bethesda Units.
as §1
The patient had developed antibodies against factor VIII prior to plasma withdrawal. The plasma contained high levels of anti-FVIII antibodies (50 BU).

[5] = tested on: normal human plasma pretreated with inhibitory antibodies against factor XI; test: Thrombin generation in normal plasma spiked with inhibitory antibodies against factor XI; assay type: biochemical; conditions: mix of #203 and #175, 75 μg/ml; 1 pM TF
Experimental: as §1, §3

Hemophilia A mice = test: In vivo vena saphena bleeding model in hemophilia A mice
Source text: FIG. 30: Effect of OKL-1111 and OKL-1187 on coagulation in mouse hemophilia A assay.
as §2, with “Clot disruption was repeated after every incidence of haemostasis for 30 minutes. Mice were fed chow that contained 0.1 mg rivaroxaban per g of chow. The mice were on this diet for 4 days to allow them to reach a steady state. Cyclodextrins were administered by a tail vein injection 5 minutes before the start of the bleeding assay.” left out, “haemostasis. […]” for “haemostasis.”

With `O=C(O)CCCCCSCC1OC2OC3C(CSCCCCCC(=O)O)OC(OC4C(CSCCCCCC(=O)O)OC(OC5C(CSCCCCCC(=O)O)OC(OC6C(CSCCCCCC(=O)O)OC(OC7C(CSCCCCCC(=O)O)OC(OC8C(CSCCCCCC(=O)O)OC(OC9C(CSCCCCCC(=O)O)OC(OC1C(O)C2O)C(O)C9O)C(O)C8O)C(O)C7O)C(O)C6O)C(O)C5O)C(O)C4O)C(O)C3O` (centres unmarked) [OKL-1111] the “thrombin generation in plasma of patients using vitamin K antagonists” value (VKA plasma) was “could be improved”, the clotting times [1] was “normalization of the clotting times” and the “thrombin generation in plasma with inhibitory antibodies against factor IX” value [2] was “concentration-dependently stimulated thrombin generation”. For the same molecule, the “procoagulant activity in factor IX deficient plasma” value [3] was “stimulate coagulation significantly”, the “thrombin generation in hemophilia A patient plasma” value [4] was “concentration-dependently stimulated thrombin generation” and the “thrombin generation in plasma with inhibitory antibodies against factor XI” value [5] was “concentration-dependently stimulated thrombin generation”. For the same molecule, the “hemostasis compared to factor VIII alone” value (Hemophilia A mice; factor VIII 2.5 IU/kg plus OKL-1111 1 μmol/kg) was “significantly higher” and the “number of clots formed over a 30 minute period” value (Hemophilia A mice; factor VIII 2.5 IU/kg plus OKL-1111 1 μmol/kg (designed to give 25 μM in plasma)) was 7-9 clots.
